Results as given in patent US9505734B2, “Phenyl C-glucoside derivative containing deoxyglucose structure, preparation method and use thereof” (Tianjin Institute of Pharmaceutical Research, priority 2012, dated 2016).

System: SD rats (type 2 diabetes model)
Assay: model for rat urine glucose excretion (glucose-oxidase method)
Assay type: in vivo
Conditions: for Urine glucose excretion (mg/200 g body weight of the rat): type 2 diabetes model SD rats, 6 mg/kg intragastrically, glucose 2 g/kg at 0.5 h, urine collected 0-12 h; for urine glucose excretion effect (in words): comparison in words, rat urine glucose excretion model, 6 mg/kg
Description: The health SD rats are injected intraperitoneally with multiple low doses of streptozotocin for modeling (type 2 diabetes model) after feeding with high-fat and high-sucrose diet, and the content of blood glucose is measured before and after modeling. After the modeling successful, the rats for modeling are randomly divided (8 rats/group) into one blank group (administering the same volume of 0.5% CMC sodium solution) and several groups for compounds to be tested (6 mg/kg) according to the content of 24-hour urine glucose and the body weight. Rats in each group are fasted for 16 hours before experiment. The experimental rats are administered intragastrically with glucose (2 g/kg) at 0.5 h after intragastrical administration with compounds to be tested. The urine is collected at the time-period of 0-12 h after administration, and the urine glucose values are measured at each time-period by glucose-oxidase method.
The inhibiting activity of the cocrystal of I-D1-6 and L-proline on SGLT2 is measured by the model for rat urine glucose excretion.
The health SD rats are injected intraperitoneally with multiple low doses of streptozotocin for modeling (type 2 diabetes model) after feeding with high-fat and high-sucrose diet for one month, and the content of blood glucose is measured before and after modeling. After the modeling successful, the rats for modeling are randomly divided (8 rats/group) into one blank group (administering the same volume of 0.5% CMC sodium solution) and groups of tested compound (6 mg/kg) according to the content of 24-hour urine glucose and the body weight. Rats in each group are fasted for 16 hours before experiment. The experimental rats are administered intragastrically with the glucose (2 g/kg) at 0.5 h after intragastrical administration with the cocrystal of I-D1-6 and L-proline prepared in Example 138. The urine is collected at the time-period of 0-12 h after administration, and the urine glucose values are measured at each time-period by glucose-oxidase method.

CCc1ccc(Cc2cc(C3OC4(CC4)C(O)C(O)C3O)ccc2C)cc1 (stereo not drawn)
Urine glucose excretion (mg/200 g body weight of the rat): 609 mg/200 g body weight of the rat

C=C1OC(c2ccc(Cl)c(Cc3ccc(OCC)cc3)c2)C(O)C(O)C1O (stereo not drawn)
Urine glucose excretion (mg/200 g body weight of the rat): 457 mg/200 g body weight of the rat

CCOc1ccc(Cc2cc(C3OC(OC)C(O)C(O)C3O)ccc2Cl)cc1 (stereo not drawn)
Urine glucose excretion (mg/200 g body weight of the rat): 644 mg/200 g body weight of the rat

COc1ccc(Cc2cc(C3OC(C)C(O)C(O)C3O)ccc2C(F)(F)F)c(F)c1F (stereo not drawn)
Urine glucose excretion (mg/200 g body weight of the rat): 622 mg/200 g body weight of the rat

CCOc1ccc(Cc2cc(C3OC(C)C(O)C(O)C3O)ccc2OC)cc1 (stereo not drawn)
Urine glucose excretion (mg/200 g body weight of the rat): 688 mg/200 g body weight of the rat

COc1ccc(Cc2cc(C(C)C)cc(C3OC(C)C(O)C(O)C3O)c2)c(F)c1 (stereo not drawn)
Urine glucose excretion (mg/200 g body weight of the rat): 523 mg/200 g body weight of the rat

C#Cc1ccc(Cc2cc(C3OC(C)C(O)C(O)C3O)ccc2Cl)cc1 (stereo not drawn)
Urine glucose excretion (mg/200 g body weight of the rat): 671 mg/200 g body weight of the rat

CCc1ccc(Cc2cc(C3OC(C)C(O)C(O)C3O)ccc2C)cc1 (stereo not drawn)
Urine glucose excretion (mg/200 g body weight of the rat): 613 mg/200 g body weight of the rat

COc1ccc(Cc2cc(C3OC(CO)CC(O)C3O)ccc2Cl)cc1 (stereo not drawn)
Urine glucose excretion (mg/200 g body weight of the rat): 310 mg/200 g body weight of the rat

C#Cc1ccc(Cc2cc(C3OC(CO)CC(O)C3O)ccc2OC)cc1 (stereo not drawn)
Urine glucose excretion (mg/200 g body weight of the rat): 328 mg/200 g body weight of the rat

CCc1ccc(Cc2cc(C3OC(CO)C(O)CC3O)ccc2C)cc1 (stereo not drawn)
Urine glucose excretion (mg/200 g body weight of the rat): 230 mg/200 g body weight of the rat

CCOc1ccc(Cc2cc(C3OC(C)(C)C(O)C(O)C3O)ccc2Cl)cc1 (stereo not drawn)
Urine glucose excretion (mg/200 g body weight of the rat): 470 mg/200 g body weight of the rat

C=C1OC(c2ccc(Cl)c(Cc3ccc(OC)cc3)c2)C(O)C(O)C1O (stereo not drawn)
Urine glucose excretion (mg/200 g body weight of the rat): 410 mg/200 g body weight of the rat

CCCCOc1ccc(Cc2cc(C3OC(C)C(O)C(O)C3O)ccc2Cl)cc1 (stereo not drawn)
Urine glucose excretion (mg/200 g body weight of the rat): 721 mg/200 g body weight of the rat

COc1ccc(Cc2cc(C)cc(C3OC(C)C(O)C(O)C3O)c2)cc1F (stereo not drawn)
Urine glucose excretion (mg/200 g body weight of the rat): 539 mg/200 g body weight of the rat

CCc1ccc(Cc2cc(C3OC(C)C(O)C(O)C3O)ccc2OC)cc1 (stereo not drawn)
Urine glucose excretion (mg/200 g body weight of the rat): 439 mg/200 g body weight of the rat

COc1ccc(Cc2cc(C3OC(CO)CC(O)C3O)ccc2Cl)c(F)c1 (stereo not drawn)
Urine glucose excretion (mg/200 g body weight of the rat): 288 mg/200 g body weight of the rat

C#Cc1ccc(Cc2cc(C3OC(CO)CC(O)C3O)ccc2Cl)cc1 (stereo not drawn)
Urine glucose excretion (mg/200 g body weight of the rat): 213 mg/200 g body weight of the rat

CCc1ccc(Cc2cc(C3CC(O)C(O)C(CO)O3)ccc2C)cc1 (stereo not drawn)
Urine glucose excretion (mg/200 g body weight of the rat): 378 mg/200 g body weight of the rat

CCc1ccc(Cc2cc(C3OC(CO)C(O)CC3O)ccc2Cl)cc1 (stereo not drawn)
Urine glucose excretion (mg/200 g body weight of the rat): 198 mg/200 g body weight of the rat

COc1ccc(Cc2cc(C3OC(CO)C(O)CC3O)ccc2Cl)cc1 (stereo not drawn)
Urine glucose excretion (mg/200 g body weight of the rat): 235 mg/200 g body weight of the rat

Cc1ccc(C2OC(C)C(O)C(O)C2O)cc1Cc1ccc(OC2CCOC2)cc1 (stereo not drawn)
Urine glucose excretion (mg/200 g body weight of the rat): 611 mg/200 g body weight of the rat

CCc1ccc(Cc2cc(C3CC(O)C(O)C(CO)O3)ccc2Cl)cc1 (stereo not drawn)
Urine glucose excretion (mg/200 g body weight of the rat): 412 mg/200 g body weight of the rat

COc1ccc(Cc2cc(C3CC(O)C(O)C(CO)O3)ccc2Cl)cc1 (stereo not drawn)
Urine glucose excretion (mg/200 g body weight of the rat): 426 mg/200 g body weight of the rat

CCOc1ccc(Cc2cc([C@@H]3C[C@@H](O)[C@H](O)[C@@H](CO)O3)ccc2Cl)cc1 [I-D1-2, (1S)-1-[4-chloro-3-(4-ethoxybenzyl)phenyl]-1,2-dideoxy-D-glucose]
urine glucose excretion effect (in words): stronger urine glucose excretion effect

CCOc1ccc(Cc2cc([C@@H]3O[C@H](CO)[C@@H](O)C[C@H]3O)ccc2Cl)cc1 [I-D1-3, (1S)-1-[4-chloro-3-(4-ethoxybenzyl)phenyl]-1,3-dideoxy-D-glucose]
urine glucose excretion effect (in words): stronger urine glucose excretion effect

CCOc1ccc(Cc2cc([C@@H]3O[C@H](CO)C[C@H](O)[C@H]3O)ccc2Cl)cc1 [I-D1-4, (1S)-1-[4-chloro-3-(4-ethoxybenzyl)phenyl]-1,4-dideoxy-D-glucose]
urine glucose excretion effect (in words): stronger urine glucose excretion effect

CCOc1ccc(Cc2cc(C3OC(CO)C(O)C(O)C3O)ccc2Cl)cc1 (stereo not drawn) [drawing 194]
Urine glucose excretion (mg/200 g body weight of the rat): 743 mg/200 g body weight of the rat

OCC1OC(c2ccc(F)c(Cc3cc4ccccc4s3)c2)C(O)C(O)C1O (stereo not drawn) [drawing 195]
Urine glucose excretion (mg/200 g body weight of the rat): 621 mg/200 g body weight of the rat

Cc1ccc(C2OC(CO)C(O)C(O)C2O)cc1Cc1ccc(-c2ccc(F)cc2)s1 (stereo not drawn) [drawing 196]
Urine glucose excretion (mg/200 g body weight of the rat): 655 mg/200 g body weight of the rat

OCC1OC(c2ccc(Cl)c(Cc3ccc(O[C@H]4CCOC4)cc3)c2)C(O)C(O)C1O (stereo partly drawn) [drawing 197]
Urine glucose excretion (mg/200 g body weight of the rat): 643 mg/200 g body weight of the rat

CCc1ccc(Cc2c(Cl)ccc3c2COC32OC(CO)C(O)C(O)C2O)cc1 (stereo not drawn) [drawing 198]
Urine glucose excretion (mg/200 g body weight of the rat): 587 mg/200 g body weight of the rat

CCOc1ccc(Cc2cc([C@]34OC[C@](CO)(O3)[C@@H](O)[C@H](O)[C@H]4O)ccc2Cl)cc1 [drawing 199]
Urine glucose excretion (mg/200 g body weight of the rat): 455 mg/200 g body weight of the rat

CCOc1ccc(Cc2cc(C3SC(CO)C(O)C(O)C3O)c(OC)cc2C)cc1 (stereo not drawn) [drawing 211]
Urine glucose excretion (mg/200 g body weight of the rat): 625 mg/200 g body weight of the rat

COc1ccc(Cc2cc(C3OC(C)C(O)C(O)C3O)ccc2Cl)cc1 (stereo not drawn) [drawing 213]
Urine glucose excretion (mg/200 g body weight of the rat): 736 mg/200 g body weight of the rat

CCOc1ccc(Cc2cc(C3OC(C)C(O)C(O)C3O)ccc2C)cc1 (stereo not drawn) [drawing 216]
Urine glucose excretion (mg/200 g body weight of the rat): 700 mg/200 g body weight of the rat

CCCOc1ccc(Cc2cc(C3OC(C)C(O)C(O)C3O)ccc2Cl)cc1 (stereo not drawn) [drawing 217]
Urine glucose excretion (mg/200 g body weight of the rat): 712 mg/200 g body weight of the rat

CCOc1ccc(Cc2cc(C3OC(C)C(O)C(O)C3O)ccc2Cl)cc1 (stereo not drawn) [drawing 219]
Urine glucose excretion (mg/200 g body weight of the rat): 833 mg/200 g body weight of the rat

CCOc1ccc(Cc2cc(C3OC(CO)CC(O)C3O)ccc2Cl)cc1 (stereo not drawn) [drawing 226]
Urine glucose excretion (mg/200 g body weight of the rat): 880 mg/200 g body weight of the rat

CCOc1ccc(Cc2cc(C3CC(O)C(O)C(CO)O3)ccc2Cl)cc1 (stereo not drawn) [drawing 227]
Urine glucose excretion (mg/200 g body weight of the rat): 811 mg/200 g body weight of the rat

Cc1ccc(C2OC(CO)CC(O)C2O)cc1Cc1ccc(-c2ccc(F)cc2)s1 (stereo not drawn) [drawing 228]
Urine glucose excretion (mg/200 g body weight of the rat): 801 mg/200 g body weight of the rat

Cc1ccc(C2CC(O)C(O)C(CO)O2)cc1Cc1ccc(-c2ccc(F)cc2)s1 (stereo not drawn) [drawing 229]
Urine glucose excretion (mg/200 g body weight of the rat): 698 mg/200 g body weight of the rat

CC1OC(c2ccc(F)c(Cc3cc4ccccc4s3)c2)C(O)C(O)C1O (stereo not drawn) [drawing 230]
Urine glucose excretion (mg/200 g body weight of the rat): 749 mg/200 g body weight of the rat

OCC1OC(c2ccc(Cl)c(Cc3ccc(O[C@H]4CCOC4)cc3)c2)C(O)CC1O (stereo partly drawn) [drawing 231]
Urine glucose excretion (mg/200 g body weight of the rat): 721 mg/200 g body weight of the rat

CC1OC(c2ccc(Cl)c(Cc3ccc(O[C@H]4CCOC4)cc3)c2)C(O)C(O)C1O (stereo partly drawn) [drawing 233]
Urine glucose excretion (mg/200 g body weight of the rat): 748 mg/200 g body weight of the rat
